#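 Growth conditions: 96-well plates. Treatment: test compound, 48 hours, 5 concentrations. Analysis: linear interpolation between bracketing concentrations; unreached endpoints set to highest concentration. TGI is the concentration that stops growth completely.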
# Columns and labels:
# Test in all cases: growth of human tumour cells (NCI), 48 h
# SN12C renal = tested on: SN12C renal
# LOX IMVI melanoma = tested on: LOX IMVI melanoma
# HCC-2998 colon = tested on: HCC-2998 colon
# PC-3 prostate = tested on: PC-3 prostate
# MDA-N = tested on: MDA-N
# HCT-116 colon = tested on: HCT-116 colon
# SK-MEL-28 melanoma = tested on: SK-MEL-28 melanoma
# UACC-62 melanoma = tested on: UACC-62 melanoma
# SF-295 CNS = tested on: SF-295 CNS
# KM12 colon = tested on: KM12 colon
# NCI/ADR-RES ovarian = tested on: NCI/ADR-RES ovarian
# SR leukemia = tested on: SR leukemia
# M14 melanoma = tested on: M14 melanoma
# HS 578T breast = tested on: HS 578T breast
# OVCAR-4 ovarian = tested on: OVCAR-4 ovarian
# SNB-19 CNS = tested on: SNB-19 CNS
# HOP-92 NSCLC = tested on: HOP-92 NSCLC
# NCI-H226 lung = tested on: NCI-H226 lung
# SNB-75 CNS = tested on: SNB-75 CNS
SMILES,TGI (SN12C renal),TGI (LOX IMVI melanoma),TGI (HCC-2998 colon),TGI (PC-3 prostate),TGI (MDA-N),TGI (HCT-116 colon),TGI (SK-MEL-28 melanoma),TGI (UACC-62 melanoma),TGI (SF-295 CNS),TGI (KM12 colon),TGI (NCI/ADR-RES ovarian),TGI (SR leukemia),TGI (M14 melanoma),TGI (HS 578T breast),TGI (OVCAR-4 ovarian),TGI (SNB-19 CNS),TGI (HOP-92 NSCLC),TGI (NCI-H226 lung),TGI (SNB-75 CNS)
Cc1cc(S(=O)(=O)Nc2nnc3ccccn23)c(S)cc1Cl,> 100 µM,> 100 µM,> 100 µM,> 100 µM,> 100 µM,> 100 µM,> 100 µM,> 100 µM,64.8 µM,> 100 µM,> 100 µM,> 100 µM,> 100 µM,> 100 µM,> 100 µM,> 100 µM,,,
CC(=O)Oc1c2ccsc2c(OC(C)=O)c2ccsc12,2.03 µM,0.357 µM,3.45 µM,,0.25 µM,2.21 µM,1.24 µM,3.3 µM,2.41 µM,3.24 µM,1.23 µM,0.88 µM,0.94 µM,0.951 µM,1.73 µM,3.17 µM,2.75 µM,5.07 µM,0.753 µM
O=C1CCC2c3ccccc3NCN12 (stereo not drawn),> 100 µM,> 100 µM,> 100 µM,> 100 µM,> 100 µM,> 100 µM,> 100 µM,> 100 µM,> 100 µM,> 100 µM,> 100 µM,,> 100 µM,> 100 µM,> 100 µM,> 100 µM,> 100 µM,> 100 µM,> 100 µM
COC(=O)CN1C(=O)C2(C(=O)OC)OC1(c1ccc([N+](=O)[O-])cc1)C1C(=O)N(c3ccccc3)C(=O)C12 (stereo not drawn),> 100 µM,> 100 µM,,> 100 µM,> 100 µM,> 100 µM,> 100 µM,> 100 µM,> 100 µM,> 100 µM,> 100 µM,,> 100 µM,> 100 µM,> 100 µM,> 100 µM,,> 100 µM,> 100 µM
Cc1nc2cc3ccccc3cc2[nH]c1=O,> 100 µM,> 100 µM,> 100 µM,> 100 µM,> 100 µM,> 100 µM,> 100 µM,> 100 µM,> 100 µM,> 100 µM,> 100 µM,> 100 µM,> 100 µM,,> 100 µM,> 100 µM,80.2 µM,> 100 µM,87 µM
CCOC(=O)C1C(c2ccc(OC)cc2)c2c([nH][nH]c2=O)CC1(C)O (stereo not drawn),> 100 µM,> 100 µM,> 100 µM,> 100 µM,> 100 µM,> 100 µM,> 100 µM,> 100 µM,> 100 µM,> 100 µM,> 100 µM,> 100 µM,> 100 µM,> 100 µM,> 100 µM,> 100 µM,> 100 µM,,> 100 µM
Cc1ccc(S(=O)(=O)N/N=C2\CCCCCCCCCCC2CN(C)C)cc1 (stereo not drawn),44.4 µM,31.5 µM,20.8 µM,30.3 µM,32.8 µM,28.2 µM,28.2 µM,32.3 µM,30.9 µM,31.8 µM,29.3 µM,> 100 µM,31.1 µM,35.6 µM,68.3 µM,30.4 µM,24.7 µM,35.2 µM,
CN1C(=O)C(C(=O)Nc2ccccn2)C2C[C@@]1(C)Oc1ccccc12 (stereo partly drawn),,> 100 µM,> 100 µM,> 100 µM,> 100 µM,> 100 µM,> 100 µM,> 100 µM,> 100 µM,> 100 µM,> 100 µM,,> 100 µM,> 100 µM,> 100 µM,> 100 µM,> 100 µM,> 100 µM,> 100 µM
CO[C@@]12C[C@@H](C)[C@]34O[C@H]3C[C@]3(C)O[C@]43CC1=C(C)C(=O)O2,> 100 µM,> 100 µM,> 100 µM,> 100 µM,> 100 µM,> 100 µM,> 100 µM,> 100 µM,> 100 µM,> 100 µM,> 100 µM,,> 100 µM,> 100 µM,> 100 µM,> 100 µM,> 100 µM,> 100 µM,
COC(=O)c1cc(O)c(O)c(O)c1-c1c(O)c(O)c(O)c(SC[C@H](NC(=O)OCc2ccccc2)C(=O)OCc2ccccc2)c1C(=O)OC,41.8 µM,49.4 µM,> 100 µM,62.7 µM,47.5 µM,35.7 µM,> 100 µM,64.8 µM,> 100 µM,> 100 µM,> 100 µM,,36.8 µM,> 100 µM,89.9 µM,> 100 µM,> 100 µM,48.2 µM,68.1 µM
COC(=O)c1ccc(C)cc1CC1Cc2cccc(C)c2C1=O (stereo not drawn),78.2 µM,9.79 µM,29.3 µM,64.8 µM,3.86 µM,20.8 µM,55.7 µM,49.6 µM,72.2 µM,23 µM,66.3 µM,,23.2 µM,39.9 µM,95.8 µM,> 100 µM,58.7 µM,9.66 µM,36.9 µM
CC(=O)C1C(=O)C(=O)N(c2ccc([N+](=O)[O-])cc2)C1=O (stereo not drawn),> 100 µM,> 100 µM,> 100 µM,> 100 µM,> 100 µM,> 100 µM,> 100 µM,> 100 µM,> 100 µM,> 100 µM,> 100 µM,,> 100 µM,> 100 µM,> 100 µM,> 100 µM,> 100 µM,> 100 µM,> 100 µM
CCNC1=C(NC(=O)c2ccccc2)C(=O)c2ccccc2C1=O,> 100 µM,,> 100 µM,78.9 µM,24.1 µM,> 100 µM,> 100 µM,> 100 µM,> 100 µM,> 100 µM,39.7 µM,> 100 µM,> 100 µM,> 100 µM,> 100 µM,> 100 µM,> 100 µM,> 100 µM,
COc1ccc(-c2csc(Cc3nc4c(Br)cc(Br)cc4c(=O)n3-c3ccc(OC)cc3)n2)cc1,,> 100 µM,> 100 µM,> 100 µM,> 100 µM,> 100 µM,> 100 µM,> 100 µM,> 100 µM,> 100 µM,> 100 µM,,63.1 µM,> 100 µM,> 100 µM,50.6 µM,> 100 µM,> 100 µM,> 100 µM
OCCCCn1cc(Cn2ncc3c(NCc4ccccc4)ncnc32)nn1,> 100 µM,> 100 µM,> 100 µM,> 100 µM,> 100 µM,> 100 µM,> 100 µM,> 100 µM,> 100 µM,> 100 µM,> 100 µM,> 100 µM,> 100 µM,> 100 µM,> 100 µM,> 100 µM,> 100 µM,> 100 µM,
S=C(N/N=C/c1ccccn1)N1CC2CCC(CC2)C1,0.645 µM,12.4 µM,18.6 µM,13 µM,13.1 µM,3.88 µM,17.4 µM,0.531 µM,11.1 µM,7.76 µM,,,0.209 µM,30.6 µM,20.4 µM,14.3 µM,13.9 µM,1.53 µM,0.868 µM
O=[N+]([O-])c1ccc2sc(/C=N/c3ccccn3)cc2c1,> 100 µM,> 100 µM,> 100 µM,> 100 µM,> 100 µM,> 100 µM,> 100 µM,> 100 µM,> 100 µM,> 100 µM,> 100 µM,89.4 µM,> 100 µM,> 100 µM,,> 100 µM,> 100 µM,,> 100 µM
O=c1oc2ccccc2c(O)c1C(c1ccc(-c2ccccc2)cc1)c1c(O)c2ccccc2oc1=O,33.7 µM,44.4 µM,29 µM,56.4 µM,36.1 µM,79.1 µM,32 µM,39.5 µM,,38.1 µM,58.6 µM,,,60.4 µM,> 100 µM,> 100 µM,48.5 µM,69 µM,> 100 µM
Cc1ccc(S(=O)(=O)N/N=C2\CCC3(O)CC2(C)CCC2C3CC2(C)C)cc1 (stereo not drawn),> 100 µM,> 100 µM,> 100 µM,66.2 µM,> 100 µM,> 100 µM,> 100 µM,> 100 µM,> 100 µM,> 100 µM,> 100 µM,> 100 µM,> 100 µM,95.6 µM,> 100 µM,> 100 µM,> 100 µM,89.5 µM,
CCOC(=O)CSC1NC(C(=O)OC)CC1OC (stereo not drawn),,,> 100 µM,> 100 µM,> 100 µM,> 100 µM,> 100 µM,> 100 µM,> 100 µM,> 100 µM,> 100 µM,,> 100 µM,> 100 µM,> 100 µM,> 100 µM,> 100 µM,,> 100 µM
C/C(=N\Nc1nc2ccccc2[nH]1)c1cnccn1,12.4 µM,> 30.5 µM,59.8 µM,> 88.4 µM,> 100 µM,> 38 µM,,> 22.3 µM,> 76.5 µM,22.4 µM,21.3 µM,,4.66 µM,> 100 µM,> 100 µM,> 100 µM,2.38 µM,,> 53.9 µM
O=[N+]([O-])c1cc(N=Nc2c(O)ccc3cc(S(=O)(=O)O)ccc23)c(O)c([N+](=O)[O-])c1,> 100 µM,> 100 µM,,> 100 µM,> 100 µM,> 100 µM,> 100 µM,> 100 µM,> 100 µM,> 100 µM,> 100 µM,,> 100 µM,> 100 µM,> 100 µM,> 100 µM,> 100 µM,> 100 µM,> 100 µM
O=C1c2ccccc2C(=O)c2c(NC(=O)C3CC3)ccc(NC(=O)C3CC3)c21,> 100 µM,> 100 µM,> 100 µM,> 100 µM,> 100 µM,> 100 µM,> 100 µM,> 100 µM,> 100 µM,> 100 µM,> 100 µM,> 100 µM,,> 100 µM,,> 100 µM,,,
C=CCOCn1cc(F)c(=O)[nH]c1=O,> 100 µM,> 100 µM,> 100 µM,> 100 µM,> 100 µM,> 100 µM,> 100 µM,> 100 µM,> 100 µM,> 100 µM,,> 100 µM,> 100 µM,> 100 µM,,> 100 µM,,> 100 µM,> 100 µM
Nc1cccc(OCC2CCCN3CCCCC23)c1 (stereo not drawn),33.6 µM,31.4 µM,30 µM,37.7 µM,30.8 µM,30.4 µM,35.7 µM,31.8 µM,33.8 µM,32.4 µM,38.3 µM,,41.4 µM,35.2 µM,47.2 µM,32.8 µM,87.4 µM,> 100 µM,30.8 µM
N#CC(C#N)=c1c2ccccc2c(=C(C#N)C#N)c2ccccc12,30.7 µM,40.5 µM,,30.4 µM,41.5 µM,34.4 µM,48.3 µM,28.5 µM,,37.6 µM,72.4 µM,,32.8 µM,47.7 µM,,32.4 µM,88.6 µM,38.2 µM,39.8 µM
CO[C@]12S[C@@H]3CCCC[C@@]31C(C)(C)C(=O)N2c1ccccc1,56.7 µM,> 100 µM,> 100 µM,96.7 µM,> 100 µM,> 100 µM,> 100 µM,> 100 µM,51.1 µM,> 100 µM,78.8 µM,> 100 µM,> 100 µM,> 100 µM,,> 100 µM,> 100 µM,,> 100 µM
